Measurements published in patent publication US5196513A, “Synthetic peptides derived from the beta-subunit of human thyroid stimulating hormone” (Mayo Foundation for Medical Education and Research, priority 1991, dated 1993).
Residues, ends and D or L forms follow the SMILES beside them.

Legend:
FRTL5 cells [1] = biological target: T1, FRTL5 cells (Rattus norvegicus, UniProt P21463); test: TSH bioassay, inhibition of TSH-mediated cAMP generation in FRTL5 cells; type: cell-based
Method: (§1) FRTL5 cells were cultured in Hams F-12 medium supplemented with 5% calf serum and a preparation containing 6 hormones (6H), including 10 mU/ml bTSH (Sigma, St. Louis, Mo.), as previously described. Ambesi-Impiombato et al., Proc. Natl. Acad. Sci. U.S.A., 77:3455 (1980), the disclosure of which is incorporated by reference herein. The cells were enzymatically removed from flasks and plated in 24 well plates containing 6H at a density of 150,000 cells per well. After 4 days, the cells were washed and the media replaced with media containing insulin only (1H). All subsequent assays were performed on cells deprived of TSH for 5-7 days.
The TSH bioassay was a modification of assays previously described by Bidey et al., J. Endocrinol., 101:269 (1984); and Kasagi et al., ACTA Endocrinol., 115:30 (1987). FRTL5 cells were washed with NaCl-free Hanks balanced salt solution (NaCl-free HBSS) pH 7.3. The cells were then exposed to purified bovine TSH (bTSH) (a gift from Dr. John Pierce, formerly of UCLA) in the presence and absence of specific β-subunit peptides in NaCl-free HBSS with 0.5 mM isobutylmethylxanthine (IBMX, Sigma, St. Louis, Mo.) and 0.5% BSA (Sigma). The total volume in each well was 275 μl. In stimulation assays, only the β-subunit peptides were added. For inhibition assays, two different concentrations of the β-subunit peptides were added to culture wells in duplicate with 200 mU/I of purified bTSH. The plates were incubated for 2 hours at 37° C. in 5% CO2. The media was removed from the cells and a portion diluted 1:50 in 0.05M NaOAc buffer, pH 6.2. A 25 μl aliquot of this was used in a cAMP RIA. Basal cAMP levels were determined in the absence of the TSH or β-subunit peptides. In inhibition assays, the percent inhibition was calculated as noted below (see Morris et al., (1988) supra): [formula]

[2] = biological target: T2, TSH receptor on human thyroid membranes (Homo sapiens, UniProt P16473); test: Human thyroid membrane TSH radio-receptor assay (inhibition of 125I-bTSH binding); details: for EC50: concentration inhibiting 125I-bTSH binding to human thyroid membrane by 50%, mean ± se of at least 3 assays; for Inhibition of TSH binding to human thyroid membrane (in words): human thyroid membrane RRA
T2 construct: Crude membrane preparations were prepared from the frozen tissue; from tissue; host or cells: human thyroid tissue (Graves' disease patients), crude 2000 x g membrane fraction
Method: Thyroid tissue from patients with Graves' disease was obtained at surgery and promptly frozen and maintained at -70° C. Crude membrane preparations were prepared from the frozen tissue as previously described, Takahashi et al., J. Clin. Endocrinol. Metab., 47:870-876 (1978), the disclosure of which is incorporated by reference herein. Briefly, the tissue was homogenized with a Polytron homogenizer (Brinkmann Instruments,Westbury, N.Y.), and the 2000×g fraction was collected by centrifugation, washed, and resuspended in 40 mM Tris, 200 mM sucrose, pH 7.4. Membrane preparations were maintained at -70° C. until assay.
(§2) Highly purified bTSH (30 U/mg, supplied by Dr. J. G. Pierce, formerly of UCLA) was radio-iodinated (Na^125 I, Amersham, Chicago) by a lactoperoxidase technique to a specific activity averaging 40-50 μCi/μg as previously described, Takahashi et al., supra, then purified by Sephadex G-100 chromatography.
(§3) The TSH radio-receptor assay (RRA) utilized for the studies has been well described previously; see Takahashi et al., supra and Morris et al., Endocrinology, 123:456-462 (1988), the disclosure of which is incorporated by reference herein. Briefly, for either human or porcine thyroid RRA, the incubation mixture consisted of the following: 10 mg equivalents of wet weight (mg eq) crude thyroid membrane preparation, 0.124 ng [^125 I]iodo-bTSH (approximately 20,000 cpm), 0.2% Triton X-100, and the noted amounts of synthetic peptides or unlabeled bTSH in 0.5 ml 40 mM Tris, 0.1% BSA, pH 7.4. Bound label was separated from free after 2 hrs incubation at 25° C. by addition of a 1 ml 30% polyethylene glycol (PEG, Baker, Phillipsburg, N.J.) 6000 in 1M NaCl and centrifugation. The resulting pellet was counted in a gamma counter. Non-specific binding was determined by addition of a 100 mU/ml crude bTSH (Sigma, St. Louis).

[3] = biological target: T3, porcine TSH receptor (porcine thyroid membranes) (Sus scrofa, UniProt Q8SPP9); test: Porcine thyroid membrane TSH radio-receptor assay (inhibition of 125I-bTSH binding); details: concentration inhibiting 125I-bTSH binding to porcine thyroid membrane by 50%; mean ± se of at least 3 assays
T3 construct: Frozen porcine thyroid glands were purchased; tissue Pel-Freez Biologicals; host or cells: porcine thyroid glands, crude membrane preparation
Description: (§4) Frozen porcine thyroid glands were purchased (Pel-Freez Biologicals, Rogers, Ak.) and prepared using the same procedures as for the human glands.
as §2, §3

FRTL5 cells [4] = biological target: T1, FRTL5 cells; test: TSab bioassay, inhibition of TSab-stimulated cAMP generation in FRTL5 cells; type: cell-based; details: for Serum samples in which TSab-stimulated cAMP was significantly inhibited (p<0.05) / samples tested: peptide 150 μg/ml; for Inhibition of TSab-stimulated cAMP generation (in words): peptide 50 and 150 μg/ml
Method: as §1
Serum samples from 15 patients with elevated TSab levels were selected from the clinical chemistry laboratory. The TSab values, expressed as an index, [formula] 63:707 (1988)]ranged from 10-20 with an average of 13.8±3.3. Normal serum has an index of less than 1.3.
The bioassay described by Kasagi et al., supra, with modifications as previously noted above, was used. The immunoglobulins were precipitated from 2 ml of TSab-containing serum with 6 ml of polyethylene glycol 6,000 (Baker; Phillipsburg, N.J.), centrifuged at 3,000×g for 20 minutes, and resuspended in 4 ml of NaCl-free HBSS with 0.5 mM IBMX and 0.5% BSA. The plated cells were washed with NaCl-free HBSS and the crude immunoglobulin extract, mixed with various concentrations of β-subunit peptides, was added in duplicate to the wells (total volume 200 μl/well). The cells were incubated for 2 hours at 37° C. and 5% CO2. The samples were then removed from the cells and a portion diluted 1:50 in NaOAc buffer, pH 6.2. A 25 μl aliquot of this was then used in a cAMP RIA as described above. The basal cAMP levels were determined for each plate of cells in the absence of immunoglobulin extract and β-peptides. A maximal cAMP level was attained by stimulating the cells with the immunoglobulin extract only. The percent increase in cAMP levels above basal was calculated as: [formula] as previously described (see Morris et al., supra). The percent inhibition of cAMP production by the β-subunit peptides was calculated as described above for TSH-stimulated cells, substituting pmol cAMP crude immunoglobulin for pmol cAMP TSH.
Inhibition of TSab activity was tested by comparing the replicates of cAMP levels generated in the presence of peptide to those generated by TSab alone using Student's T test for unpaired samples. Mean inhibition by the various doses of synthetic peptide for the patient group was tested by comparison with maximum cAMP response within each patient sample using the T test for paired samples.

[5] = biological target: T4, EGF thyroid membrane receptor (Sus scrofa, UniProt A0A5G2R2I8); test: Porcine thyroid membrane epidermal growth factor radio-receptor assay; type: binding; details: [125I]iodo-EGF, read-out: EC50 of unlabeled EGF in EGF RRA
T4 construct: The incubation mixture consisted of 40 mg eq crude thyroid membrane; tissue Pel-Freez Biologicals; host or cells: porcine thyroid glands, crude membrane preparation
Method: as §4
The EGF RRA was a modification of that described by Humphries et al., J. Endocrinol., 102:857-61 (1984), the disclosure of which is incorporated by reference herein. Purified murine EGF (a gift of Dr. N. S. Jiang, Mayo Clinic) was radio-iodinated by a chloramine-T technique to a specific activity of 65 μCi/μg. The incubation mixture consisted of 40 mg eq crude thyroid membrane, 0.5 ng [^125 I]iodo-EGF, and the indicated concentrations of unlabeled EGF or synthetic peptides in 0.5 ml phosphate buffered saline plus 5 mM MgCl2, 1 mM CaCl2, 0.1% BSA, pH 7.4. Non-specific binding was determined by addition of 0.5 μg unlabeled EGF. Bound was separated from free by precipitation with PEG and centrifugation as above.

T3 sequence (Q8SPP9 22-764): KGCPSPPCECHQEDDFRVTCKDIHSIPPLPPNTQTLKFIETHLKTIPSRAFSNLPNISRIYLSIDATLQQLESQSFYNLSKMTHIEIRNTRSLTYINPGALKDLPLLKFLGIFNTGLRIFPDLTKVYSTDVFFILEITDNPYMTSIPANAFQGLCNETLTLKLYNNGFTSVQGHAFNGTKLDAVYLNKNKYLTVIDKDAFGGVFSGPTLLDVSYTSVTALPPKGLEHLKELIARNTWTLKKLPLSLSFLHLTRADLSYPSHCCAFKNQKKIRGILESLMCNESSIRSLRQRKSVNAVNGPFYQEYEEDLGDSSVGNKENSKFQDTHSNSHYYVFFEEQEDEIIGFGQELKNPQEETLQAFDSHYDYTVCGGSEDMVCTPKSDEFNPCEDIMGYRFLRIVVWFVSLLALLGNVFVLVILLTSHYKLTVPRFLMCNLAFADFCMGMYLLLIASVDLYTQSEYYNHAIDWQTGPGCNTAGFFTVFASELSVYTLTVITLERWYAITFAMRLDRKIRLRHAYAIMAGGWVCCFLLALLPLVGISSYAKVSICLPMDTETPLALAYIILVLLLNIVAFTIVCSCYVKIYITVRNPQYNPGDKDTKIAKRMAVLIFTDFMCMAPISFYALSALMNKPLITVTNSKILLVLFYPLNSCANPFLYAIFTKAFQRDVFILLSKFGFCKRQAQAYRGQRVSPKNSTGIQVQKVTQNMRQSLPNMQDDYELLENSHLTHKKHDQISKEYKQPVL
T1 sequence (P21463 22-764): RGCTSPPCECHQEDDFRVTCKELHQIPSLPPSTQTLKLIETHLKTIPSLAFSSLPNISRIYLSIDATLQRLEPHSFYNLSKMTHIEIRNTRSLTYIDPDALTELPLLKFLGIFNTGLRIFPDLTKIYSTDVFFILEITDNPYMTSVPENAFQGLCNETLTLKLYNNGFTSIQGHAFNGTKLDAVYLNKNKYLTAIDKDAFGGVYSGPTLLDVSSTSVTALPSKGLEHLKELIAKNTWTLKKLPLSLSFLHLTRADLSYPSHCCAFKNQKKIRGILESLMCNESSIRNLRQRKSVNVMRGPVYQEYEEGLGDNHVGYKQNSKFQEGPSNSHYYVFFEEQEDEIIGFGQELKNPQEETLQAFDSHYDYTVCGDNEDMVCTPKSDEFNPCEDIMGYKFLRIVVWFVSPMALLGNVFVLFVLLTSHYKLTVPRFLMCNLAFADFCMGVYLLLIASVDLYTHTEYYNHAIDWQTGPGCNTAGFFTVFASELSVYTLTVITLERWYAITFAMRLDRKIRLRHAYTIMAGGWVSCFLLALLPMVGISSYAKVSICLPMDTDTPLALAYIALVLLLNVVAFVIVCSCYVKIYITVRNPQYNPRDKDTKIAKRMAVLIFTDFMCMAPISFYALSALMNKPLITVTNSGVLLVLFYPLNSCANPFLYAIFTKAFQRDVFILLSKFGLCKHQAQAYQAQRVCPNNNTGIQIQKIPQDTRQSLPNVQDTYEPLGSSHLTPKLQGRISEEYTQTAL
T2 sequence (P16473 21-764): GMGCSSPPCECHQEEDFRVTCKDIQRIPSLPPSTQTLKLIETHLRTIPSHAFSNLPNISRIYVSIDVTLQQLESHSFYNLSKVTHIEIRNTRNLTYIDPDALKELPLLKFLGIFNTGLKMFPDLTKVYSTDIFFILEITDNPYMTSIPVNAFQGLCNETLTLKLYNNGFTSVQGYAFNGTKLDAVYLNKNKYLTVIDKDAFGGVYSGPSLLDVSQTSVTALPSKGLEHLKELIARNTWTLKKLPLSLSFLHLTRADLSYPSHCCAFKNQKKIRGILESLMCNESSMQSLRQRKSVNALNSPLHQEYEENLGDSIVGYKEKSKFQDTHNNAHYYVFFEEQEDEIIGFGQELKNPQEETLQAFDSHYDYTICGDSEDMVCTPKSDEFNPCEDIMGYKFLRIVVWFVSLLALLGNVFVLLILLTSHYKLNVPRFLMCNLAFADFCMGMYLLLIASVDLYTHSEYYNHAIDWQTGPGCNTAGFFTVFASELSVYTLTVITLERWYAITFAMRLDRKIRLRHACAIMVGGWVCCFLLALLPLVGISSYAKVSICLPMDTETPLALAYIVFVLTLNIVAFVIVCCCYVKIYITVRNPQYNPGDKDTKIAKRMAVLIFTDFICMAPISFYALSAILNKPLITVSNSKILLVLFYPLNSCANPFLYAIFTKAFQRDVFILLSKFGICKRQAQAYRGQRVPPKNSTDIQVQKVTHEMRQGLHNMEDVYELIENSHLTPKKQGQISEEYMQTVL
T4 sequence (A0A5G2R2I8 22-1210): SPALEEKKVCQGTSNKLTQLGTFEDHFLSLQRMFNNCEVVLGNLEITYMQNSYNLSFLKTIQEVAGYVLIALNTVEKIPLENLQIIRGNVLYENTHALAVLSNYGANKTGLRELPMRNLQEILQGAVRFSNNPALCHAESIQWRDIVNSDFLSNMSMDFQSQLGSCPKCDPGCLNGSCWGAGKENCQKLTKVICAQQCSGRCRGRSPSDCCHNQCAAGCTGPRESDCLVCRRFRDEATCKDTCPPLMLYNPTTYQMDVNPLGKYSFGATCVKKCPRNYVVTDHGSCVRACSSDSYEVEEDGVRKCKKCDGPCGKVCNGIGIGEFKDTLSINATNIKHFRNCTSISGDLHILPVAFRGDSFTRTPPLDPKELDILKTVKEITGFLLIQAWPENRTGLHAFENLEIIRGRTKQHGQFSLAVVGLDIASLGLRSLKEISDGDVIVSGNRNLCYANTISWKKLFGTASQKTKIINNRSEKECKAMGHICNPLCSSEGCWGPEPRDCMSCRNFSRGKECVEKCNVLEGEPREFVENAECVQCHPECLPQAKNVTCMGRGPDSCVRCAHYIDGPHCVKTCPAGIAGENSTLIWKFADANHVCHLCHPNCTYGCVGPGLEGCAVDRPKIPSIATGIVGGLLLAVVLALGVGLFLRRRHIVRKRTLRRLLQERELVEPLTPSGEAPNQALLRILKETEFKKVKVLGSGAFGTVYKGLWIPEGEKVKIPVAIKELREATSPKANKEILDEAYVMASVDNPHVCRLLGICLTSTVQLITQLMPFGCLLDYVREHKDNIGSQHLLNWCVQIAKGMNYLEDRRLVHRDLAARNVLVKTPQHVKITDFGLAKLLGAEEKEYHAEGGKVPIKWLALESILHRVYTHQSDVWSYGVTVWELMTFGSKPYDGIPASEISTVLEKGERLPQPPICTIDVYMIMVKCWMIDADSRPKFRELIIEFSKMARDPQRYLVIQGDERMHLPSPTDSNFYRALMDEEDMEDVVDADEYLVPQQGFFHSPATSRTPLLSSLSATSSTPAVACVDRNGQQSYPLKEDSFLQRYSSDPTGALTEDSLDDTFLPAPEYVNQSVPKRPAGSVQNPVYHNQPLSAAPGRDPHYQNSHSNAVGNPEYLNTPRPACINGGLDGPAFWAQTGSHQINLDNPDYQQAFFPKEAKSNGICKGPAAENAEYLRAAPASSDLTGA

EC50 [2]	EC50 [3]	Serum samples in which TSab-stimulated cAMP was significantly inhibited (p<0.05) / samples tested (FRTL5 cells [4])	Inhibition of TSab-stimulated cAMP generation (in words) (FRTL5 cells [4])	Inhibition of TSab-stimulated cAMP generation (in words) (FRTL5 cells [4]; listed as (I))	Inhibition of TSab-stimulated cAMP generation (in words) (FRTL5 cells [4]; listed as (III))	EC50 [5]	Inhibition of TSab-stimulated cAMP generation (in words) (FRTL5 cells [4]; listed as (II))	Compound	Inhibition of TSH-mediated cAMP generation (in words) (FRTL5 cells [1])	Inhibition of TSH binding to human thyroid membrane (in words) [2]
331 ± 45 µM	1160 ± 431 µM	12/12	significantly inhibited cAMP production	inhibitory effect	–	–	–	CC[C@H](C)[C@H](NC(=O)[C@H](Cc1c[nH]cn1)NC(=O)[C@H](CCSC)NC(=O)[C@@H](NC(=O)[C@H](Cc1ccc(O)cc1)NC(=O)[C@H](CCC(=O)O)NC(=O)[C@@H](NC(=O)[C@@H]1CCCN1C(=O)[C@@H](NC(=O)[C@H](CS)NC(=O)[C@@H](N)Cc1ccccc1)[C@@H](C)CC)[C@@H](C)O)[C@@H](C)O)C(=O)N[C@@H](CCC(=O)O)C(=O)N[C@@H](CCCNC(=N)N)C(=O)N[C@@H](CCCNC(=N)N)C(=O)N[C@@H](CCC(=O)O)C(N)=O [β1-15, Phe-Cys-Ile-Pro-Thr-Glu-Tyr-Thr-Met-His-Ile-Glu-Arg-Arg-Glu] (H-FCIPTEYTMHIERRE-NH2; N-terminus assumed)	effectively inhibit TSH-mediated cAMP generation	–
80 ± 9 µM	106 ± 8.7 µM	10/11	significantly inhibited cAMP production	–	inhibitory effect	–	–	C[C@@H](O)[C@H](NC(=O)[C@H](CS)NC(=O)[C@H](Cc1ccc(O)cc1)NC(=O)[C@H](CC(N)=O)NC(=O)[C@@H](NC(=O)[C@@H](N)CCCCN)[C@@H](C)O)C(=O)N[C@@H](CCCCN)C(=O)N1CCC[C@H]1C(=O)N[C@@H](CCC(N)=O)C(=O)N[C@@H](CCCCN)C(=O)N[C@@H](CO)C(=O)N[C@@H](Cc1ccc(O)cc1)C(=O)O [β101-112, Lys-Thr-Asn-Tyr-Cys-Thr-Lys-Pro-Gln-Lys-Ser-Tyr] (H-KTNYCTKPQKSY-OH)	effectively inhibit TSH-mediated cAMP generation	inhibit binding of TSH to human thyroid membrane
–	–	–	–	–	–	0.000252 µM	–	EGF: purified murine epidermal growth factor, unlabeled	–	–
> 1000 µM	186 ± 28 µM	–	–	–	–	–	–	CC[C@H](C)[C@H](N)C(=O)N[C@@H](CCC(=O)O)C(=O)N[C@@H](CCCNC(=N)N)C(=O)N[C@@H](CCCNC(=N)N)C(=O)N[C@@H](CCC(=O)O)C(=O)N[C@@H](CS)C(=O)N[C@@H](C)C(=O)N[C@@H](Cc1ccc(O)cc1)C(=O)N[C@@H](CS)C(=O)N[C@@H](CC(C)C)C(=O)N[C@H](C(=O)N[C@H](C(=O)N[C@@H](CC(N)=O)C(=O)N[C@H](C(=O)N[C@H](C(N)=O)[C@@H](C)O)[C@@H](C)O)[C@@H](C)CC)[C@@H](C)O [β11-25] (H-IERRECAYCLTINTT-NH2)	–	inactive
> 1000 µM	> 1000 µM	–	–	–	–	–	–	CC[C@H](C)[C@H](NC(=O)[C@H](CCC(=O)O)NC(=O)[C@@H](NC(=O)[C@@H](N)[C@@H](C)O)C(C)C)C(=O)N1CCC[C@H]1C(=O)NCC(=O)N[C@@H](CS)C(=O)N1CCC[C@H]1C(=O)N[C@@H](CC(C)C)C(=O)N[C@@H](Cc1c[nH]cn1)C(=O)N[C@H](C(=O)N[C@@H](C)C(=O)N1CCC[C@H]1C(=O)N[C@@H](Cc1ccc(O)cc1)C(=O)N[C@@H](Cc1ccccc1)C(N)=O)C(C)C [β61-75] (H-TVEIPGCPLHVAPYF-NH2)	–	–
–	–	10/11	significantly inhibited cAMP production	–	–	–	inhibitory effect	CC(C)C[C@H](N)C(=O)N[C@@H](CO)C(=O)N[C@@H](CS)C(=O)N[C@@H](CCCCN)C(=O)N[C@@H](CS)C(=O)NCC(=O)N[C@@H](CCCCN)C(=O)N[C@@H](CS)C(=O)N[C@@H](CC(N)=O)C(=O)N[C@H](C(=O)N[C@@H](CC(=O)O)C(=O)N[C@@H](Cc1ccc(O)cc1)C(=O)N[C@@H](CO)C(=O)N[C@@H](CC(=O)O)C(=O)N[C@@H](CS)C(N)=O)[C@@H](C)O [β81-95, Leu-Ser-Cys-Lys-Cys-Gly-Lys-Cys-Asn-Thr-Asp-Tyr-Ser-Asp-Cys] (H-LSCKCGKCNTDYSDC-NH2; N-terminus assumed)	effectively inhibit TSH-mediated cAMP generation	inhibit binding of TSH to human thyroid membrane
